Test systems include UO-31 renal; MOLT-4 leukemia; NCI/ADR-RES ovarian; 786-0 renal; HS 578T breast; OVCAR-8 ovarian; OVCAR-4 ovarian; SNB-75 CNS; HOP-92 NSCLC; SW-620 colon; RXF 393 renal; HCC-2998 colon; UACC-62 melanoma; SF-268 CNS; RPMI-8226 leukemia; MDA-MB-435; SF-295 CNS; SR leukemia; NCI-H460 lung; MDA-MB-231 breast.
Holding throughout (assay): growth of human tumour cells (NCI), 48 h

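How tested: cells in 96-well plates exposed to compound for 48 hours at five concentrations. TGI denotes the concentration required for complete inhibition of growth.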

Turning to `COC(=O)C1=C(O)C(C(=O)OC)[C@]2(O)[C@H](C(=O)OC)[C@H]1C[C@@H](c1c(Cl)cccc1Cl)[C@H]2C(=O)OC` (stereo not given in full), the TGI with UO-31 renal came out at 3.01 µM; in the test with MOLT-4 leukemia, 5.31 µM; with NCI/ADR-RES ovarian it was 7.01 µM; with 786-0 renal, 3.48 µM; in the test with HS 578T breast, 27.3 µM; in the test with OVCAR-8 ovarian, 3.66 µM. Further, the TGI with OVCAR-4 ovarian came out at 30.4 µM; with SNB-75 CNS, 8.7 µM; in the test on HOP-92 NSCLC, 14 µM; in the test on SW-620 colon it was 11 µM; in the test on RXF 393 renal, 3.92 µM; in the test with HCC-2998 colon, 3.03 µM. Further, the TGI worked out at 5.56 µM in the test on UACC-62 melanoma; 12.9 µM in the test on SF-268 CNS; 3.38 µM in the test with RPMI-8226 leukemia; 3.3 µM in the test with MDA-MB-435; 7.57 µM in the test with SF-295 CNS; 4.87 µM in the test on SR leukemia. For the same compound, the figures for the TGI with NCI-H460 lung and in the test with MDA-MB-231 breast were 6.55 µM and 12.9 µM, respectively.
On to `Cc1cc(NC[C@H](O)[C@H](O)[C@H](O)CO)c(Sc2cc(=O)[nH]c(=O)[nH]2)cc1C`, for which the TGI in the test with UO-31 renal, with MOLT-4 leukemia, with NCI/ADR-RES ovarian, in the test with 786-0 renal, with HS 578T breast and with OVCAR-8 ovarian was more than 62.5 µM in each case. Besides, the TGI in the test on OVCAR-4 ovarian, with SNB-75 CNS, in the test with HOP-92 NSCLC, with SW-620 colon, in the test with RXF 393 renal and in the test with HCC-2998 colon was more than 62.5 µM throughout. The TGI with UACC-62 melanoma, with SF-268 CNS, in the test on RPMI-8226 leukemia, in the test on MDA-MB-435, with SF-295 CNS and in the test on SR leukemia was more than 62.5 µM in each case. For the same compound, the TGI in the test with NCI-H460 lung and in the test with MDA-MB-231 breast was more than 62.5 µM each time.
Regarding `Cc1noc2nnn(-c3ccc(Cl)cc3)c(=O)c12`, the TGI is 8.63 µM in the test on UO-31 renal; 1.94 µM with MOLT-4 leukemia; 29.8 µM in the test on NCI/ADR-RES ovarian; 8.33 µM with 786-0 renal; more than 60.3 µM with HS 578T breast; 29.8 µM with OVCAR-8 ovarian. The TGI came to 57.3 µM in the test on OVCAR-4 ovarian; 7.47 µM in the test with SNB-75 CNS; 17.9 µM in the test on HOP-92 NSCLC; 5.41 µM in the test with SW-620 colon; 4.79 µM in the test with RXF 393 renal; 9.7 µM in the test with HCC-2998 colon. The TGI in the test with UACC-62 melanoma is 17.8 µM; with SF-268 CNS it was 22.1 µM; in the test with RPMI-8226 leukemia it was 3.11 µM; with MDA-MB-435 it was 16.2 µM; with SF-295 CNS, 27.8 µM; in the test with SR leukemia it was 3.78 µM. For the same compound, the figures for the TGI in the test with NCI-H460 lung and in the test with MDA-MB-231 breast were 21.3 µM and 25.7 µM, respectively.
For the compound `CCOC(=O)C(C(=S)Nc1ccccc1)c1nn2c(=O)cc(C)nc2s1` (stereo not given), the TGI in the test with UO-31 renal is 70 µM; with MOLT-4 leukemia it was 69.1 µM; in the test with NCI/ADR-RES ovarian it was 67.2 µM; in the test on 786-0 renal it was more than 100 µM; in the test on HS 578T breast, more than 100 µM; in the test with OVCAR-8 ovarian, 51 µM. Also, the TGI with OVCAR-4 ovarian is more than 100 µM; in the test with SNB-75 CNS, 60 µM; with HOP-92 NSCLC, 57.4 µM; with SW-620 colon it was more than 100 µM; in the test on RXF 393 renal, more than 100 µM; in the test with HCC-2998 colon, 60.6 µM. Further, the TGI was 66.1 µM in the test with UACC-62 melanoma; more than 100 µM in the test with SF-268 CNS; 67.5 µM in the test on RPMI-8226 leukemia; 47.7 µM in the test with MDA-MB-435; more than 100 µM in the test on SF-295 CNS; 80.9 µM in the test with SR leukemia. Also, the values for the TGI with NCI-H460 lung and in the test on MDA-MB-231 breast were 81.1 µM and 70 µM, respectively.
Regarding `CC1C2CC(C(S(=O)(=O)N3CCOCC3)/C2=N\O)C1(C)C` (stereo not given), the TGI in the test with UO-31 renal, with MOLT-4 leukemia, in the test with NCI/ADR-RES ovarian, in the test on 786-0 renal, in the test on HS 578T breast and with OVCAR-8 ovarian was more than 100 µM each time. For the same compound, the TGI in the test with OVCAR-4 ovarian, with SNB-75 CNS, in the test with HOP-92 NSCLC, in the test on SW-620 colon, with RXF 393 renal and in the test with HCC-2998 colon was more than 100 µM each time. For the same compound, the TGI with UACC-62 melanoma, in the test on SF-268 CNS, in the test with RPMI-8226 leukemia, in the test on MDA-MB-435, in the test on SF-295 CNS and in the test with SR leukemia was more than 100 µM throughout. Besides, the TGI with NCI-H460 lung and in the test with MDA-MB-231 breast was more than 100 µM each time.
`CCCCN1C(=O)c2c(-c3sccc3N)sc(-c3sccc3N)c2C1=O`: the TGI with UO-31 renal was more than 51 µM; in the test on MOLT-4 leukemia it was more than 24.4 µM; with NCI/ADR-RES ovarian it was more than 83.2 µM; in the test on 786-0 renal it was 21.1 µM; in the test with HS 578T breast, 83.6 µM; in the test on OVCAR-8 ovarian, more than 72.1 µM. Besides, the TGI with OVCAR-4 ovarian was 45.3 µM; in the test with SNB-75 CNS it was 34.6 µM; in the test with HOP-92 NSCLC, more than 100 µM; in the test with SW-620 colon it was more than 100 µM; with RXF 393 renal it was 41 µM; with HCC-2998 colon, more than 100 µM. Moreover, the TGI was more than 64.6 µM in the test with UACC-62 melanoma; more than 74.3 µM in the test on SF-268 CNS; 55 µM with RPMI-8226 leukemia; more than 100 µM with MDA-MB-435; 58 µM with SF-295 CNS; more than 23.1 µM in the test on SR leukemia. The values for the TGI with NCI-H460 lung and with MDA-MB-231 breast were more than 100 µM and 97.3 µM, respectively.
